“Also recorded” adds a separate entry of the source.

Assay [1] addresses T1, Id1 (Mus musculus, UniProt P20067).
T1 construct: GST (N, cleaved yes); made in house; host or cells: E. coli Rosetta 2(DE3)
T1 sequence (P20067 1-168): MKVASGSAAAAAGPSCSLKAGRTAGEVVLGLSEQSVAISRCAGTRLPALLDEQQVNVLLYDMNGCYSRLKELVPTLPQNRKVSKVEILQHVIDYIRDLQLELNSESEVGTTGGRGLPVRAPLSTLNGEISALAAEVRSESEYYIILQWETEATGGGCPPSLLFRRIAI
Kind of assay: Circular dichroism (CD) of Id1. The format is binding. As to the method:
Id protein purification. pGEV-PSP-mId1 and mId3 expression constructs were transformed into Rosetta 2(DE3) Competent Cells (Sigma Millipore) for protein expression. To produce recombinant GST-tagged protein, a 50 mL LB/Ampicillin (100 μg/m)+Chloramphenicol (25 μg/mL) culture was grown overnight at 37° C. Early the next day, the overnight culture was diluted 1:100 into 6 L LB/Ampicillin+Chloramphenicol and cultured at 37° C. for about four hours until OD600=0.7. Cultures were induced with 1 mM IPTG and incubated at 16° C. for 16-18 hours. Cells were harvested by centrifugation at 4000 rpm for 15 minutes at 4° C. and the pellet was resuspended in lysis buffer (50 mM Tris pH 8.0; 400 mM NaCl; 0.5 mM TCEP, Protease Inhibitor Cocktail) (25 mL/L of culture). To lyse the cells, Triton X-100 and lysozyme were added to 0.1% and 10 μg/mL respectively, incubated for 30 minutes on ice and sonicated. Lysates were spun at 17,000 rpm for 30 minutes at 4° C. and supernatants were filtered through a […] filter before incubation with glutathione sepharose for two hours at 4° C. The sepharose with bound protein was run through a polypropylene column and washed twice with 50 mL wash buffer (50 mM Tris pH 8.0; 400 mM NaCl) before protein was eluted with 10 mL 50 mM glutathione elution buffer, pH 8.0. Protein was subjected to buffer exchange with PD10 columns (Sigma) into 12 mL storage buffer (50 mM Tris HCl pH 8.0, 400 mM NaCl, 10 mM EDTA, 1 mM DTT, 10% Glycerol).
GST-tag was cleaved with PreScission Protease (0.1 μL of 0.3 μg/μL PreScission Protease cleaves 10 μg of GST-mId1 when incubated at 4° C. for four hours) and incubated with Glutathione Sepharose to separate out the cleaved GST-tag. The cleaved mId1 protein was further cleaned by incubation with GST antibodies (Abcam #ab9085-200 μL anti-GST rabbit polyclonal; ThermoFisher #MA4-004 anti-GST mouse monoclonal) before Coomassie gel analysis. Cleaved protein was concentrated to desired strength using Amicon 3000MCO Ultra-4 centrifugal columns (UFC800308).
Circular dichroism. […]
A general note: Circular dichroism is widely used to follow secondary structure.

The test system of assay [2] is HUVEC. Kind of assay: HUVEC scratch (migration) assay. The class given is cell-based, human. The note with it: 0-40 μM, 24 hours. As to the method:
HUVEC scratch assay. HUVECs were seeded on 24-well plate coated with 0.1% fibronectin. After 24 hours when cells were grown to confluency, cells were serum starved for 4 hours in Endothelial Basal Medium (EBM, Lonza) and scraped with a sterile P200 pipette tip to generate a cell free zone. Cells were washed with PBS and stimulated with EGM-2 medium with the indicated AGX concentration for 24 hours. The scratched area at 0 and at 24 hours was visualized using an inverted microscope and photographed with a digital camera at 20× magnification.

Assay [3] relates to SNU-1079. Kind of assay: Cholangiocarcinoma cell viability, SNU-1079. The format is cell-based. The method, then: Cell viability assays. Cell lines were seeded in a 96 well plate (5000 cells per well). After overnight incubation, cells were treated with AGX51 and incubated for 24 hours then MTT reagent (5 mg/mL) was added per well and the cells were incubated for four hours. Following incubation, media was aspirated and 200 μL DMSO was added per well. Absorbance was then measured at 570 nm using a plate reader (Synergy 2, BioTek). Cell growth profiles were determined by seeding 38,000 cells in a 24-well plate, in triplicate for each time point, and counting the cells on days 1, 3 and 5 after seeding, using trypan blue exclusion of dead cells.
The effects of AGX51 and AGX-A on cholangiocarcinoma cell viability were assessed for the six different cholangiocarcinoma cell lines. The measured IC50 values (in μM) from these studies are provided in Table 2 below, along with the ratio of the AGX51 IC50 to the AGX-A IC50 to aid in comparison.

For assay [4], the target named is T2, Id3 (Homo sapiens, UniProt Q02535).
T2 construct: endogenous in cells; host or cells: TFK1
T2 sequence (Q02535 whole entry): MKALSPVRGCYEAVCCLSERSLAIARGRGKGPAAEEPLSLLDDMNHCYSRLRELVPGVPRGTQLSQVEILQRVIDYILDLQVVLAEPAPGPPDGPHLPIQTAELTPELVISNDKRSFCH
Kind of assay: Knockdown of Id3 in TFK1 cell cultures. To be noted: TFK1, FIG. 22. The class given is cell-based. An excerpt:
Following the methods described herein (see, e.g., Examples 12-13), AGX-A and AGX51 were compared for their ability to mediate Id knockdown in cell cultures. FIG. 21 illustrates side-by-side comparative effects of AGX51 and AGX-A for knockdown of Id1 in TFK1 cell cultures, and FIG. 22 illustrates side-by-side comparative effects of AGX51 and AGX-A for knockdown of Id3 in TFK1 cell cultures.

A word on the IC50: it is the concentration that gives 50% inhibition. As to `CCC(=O)N(CCC(c1ccc2c(c1)OCO2)c1ccccc1OC)Cc1ccccc1` (racemic) [AGX51, N-(3-(benzo[d][1,3]dioxol-5-yl)-3-(2-methoxyphenyl)propyl)-N-benzylpropionamide], the “alteration of Id1 secondary structure (CD spectra)” value in assay [1] (0, 10, 20 and 50 μM) is reported as “significant alteration in the secondary structure of Id1”. In assay [1] (implied from saturation of CD changes, read-out: concentration at which CD changes saturated / range of dissociation constant), the Kd was around 20 µM. Also, the HUVEC migration entry in assay [2] was “significantly impaired HUVEC migration”. Moreover, the IC50 in assay [3] was determined as 23.1 µM.

As to `COc1ccccc1C(CCNCc1ccccc1)c1ccc(OC(C)C)cc1` (centres unmarked) [AGX-A, N-benzyl-3-(4-isopropoxyphenyl)-3-(2-methoxyphenyl)propan-1-anine], the “relative activity in CD assay with Id1” value in assay [1] (comparison between compounds) was “exhibiting greater activity than AGX51; also recorded: worked at lower concentrations than AGX51”. Moreover, in assay [3], the “(AGX51 IC50)/(AGX-A IC50)” value is 3.95 and the IC50 worked out at 5.84 µM. Besides, the “Id3 knockdown potency vs AGX51” value in assay [4] was “superior anti-Id1 and anti-Id3 potency compared to AGX51”.

These data come from patent US20220356163A1, “SMALL MOLECULE INHIBITORS OF Id PROTEINS” (MEMORIAL SLOAN KETTERING CANCER CENTER, priority 2019, published 2022).
